From US11524940B1, “Inhibitors of cysteine proteases and methods of use thereof” (priority 2020, dated 2022)

Key:
[1] = target: 229E Mpro (Human coronavirus 229E (HCoV-229E), UniProt P0C6X1); assay: 229E Mpro activity; format: biochemical; conditions: read-out: 229E Mpro EC50
Procedure: Compounds are assayed using standard methods to assess compound activity and IC50. […] The assay buffer contains 20 mM of Tris-HCl (pH 7.3), 100 mM of NaCl, 1 mM of EDTA, 5mM of TCEP and 0.1% BSA.

[2] = tested on: Human Coronavirus (HCov) 229E; assay: HCoV 229E cytopathic effect (CPE) assay; format: cell-based; conditions: protection from virus-induced CPE, CellTiter Glo
Procedure: The antiviral activity of compounds is calculated based on the protection of the virus-induced CPE at each concentration normalized by the virus control.
Reagents and instruments used in this assay include luminescent cell viability assay kit CellTiter Glo (Promega) and Microplate Reader Synergy2 (BioTek).
Cytopathic effect (CPE) is measured by CellTiter Glo following the manufacturer's manual. The antiviral activity of compounds is calculated based on the protection of the virus-induced CPE at each concentration normalized by the virus control.

[3] = target: SARS-CoV2 Mpro (Severe acute respiratory syndrome coronavirus 2 (2019-nCoV) (SARS-CoV-2), UniProt P0DTD1); assay: COVID-19 (SARS-CoV2) Mpro enzymatic assay; format: biochemical; conditions: 25 nM Mpro, 25 μM substrate

Chain of 229E Mpro (P0C6X1 2966-3267 limits assumed): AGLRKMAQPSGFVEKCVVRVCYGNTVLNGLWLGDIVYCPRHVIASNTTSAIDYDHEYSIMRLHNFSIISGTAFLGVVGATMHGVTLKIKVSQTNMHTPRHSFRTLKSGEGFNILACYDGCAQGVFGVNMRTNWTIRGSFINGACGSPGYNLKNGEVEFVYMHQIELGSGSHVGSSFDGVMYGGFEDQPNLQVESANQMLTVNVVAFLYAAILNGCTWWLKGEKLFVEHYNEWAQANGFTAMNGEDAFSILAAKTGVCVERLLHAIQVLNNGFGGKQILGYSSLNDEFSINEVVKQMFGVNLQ

Molecule	EC50 [1] [µM]	EC50 ([2]; human coronavirus 229E) [µM]	EC50 [2] [µM]	IC50 [3] [µM]
COc1cccc2[nH]c(C(=O)N[C@@H](CC(C)C)C(=O)NC(C#N)c3cccnc3)cc12 (mixture of isomers) [Compound 433, N-[(1S)-1-[[cyano(3-pyridyl)methyl]carbamoyl]-3-methyl-butyl]-4-methoxy-1H-indole-2-carboxamide]	< 2	2 to 10	–	–
COc1cccc2[nH]c(C(=O)N[C@@H](CC(C)C)C(=O)N[C@@H](CC3CCNC3=O)C(C#N)NCc3ccccc3)cc12 (single isomer, unassigned) [507 (Isomer 1.1)]	< 2	< 2	–	–
COc1cccc2[nH]c(C(=O)N[C@@H](CC(C)C)C(=O)N[C@@H](CC3CCNC3=O)C(C#N)NCc3ccccc3)cc12 (single isomer, unassigned) [507 (Isomer 1.2)]	< 2	–	< 2	–
COc1cccc2[nH]c(C(=O)N[C@@H](CC(C)C)C(=O)N[C@@H](CC3CCNC3=O)C(C#N)NCc3ccccc3)cc12 (single isomer, unassigned) [507 (Isomer 2.2)]	< 2	–	< 2	–
COc1cccc2[nH]c(C(=O)N3CC4(CC3C(=O)N[C@H](C#N)C[C@@H]3CCCNC3=O)CC(F)(F)C4)cc12 (single isomer, unassigned) [723 (Isomer 2)]	< 2	< 2	–	< 2
N#C[C@H](C[C@@H]1CCCNC1=O)NC(=O)C1CC2(CCCCC2)CN1C(=O)c1cc2cccc(Cl)c2[nH]1 (single isomer, unassigned) [731 (Isomer 1)]	< 2	< 2	–	< 2
N#C[C@H](C[C@@H]1CCCNC1=O)NC(=O)C1CC2(CCCCC2)CN1C(=O)c1cc2ccc(Cl)cc2[nH]1 (single isomer, unassigned) [733 (Isomer 1)]	< 2	< 2	–	< 2
COc1cccc2[nH]c(C(=O)N[C@@H](CC(C)C)C(=O)N[C@H](C#N)C[C@@H]3CCNC3=O)cc12 [Compound 101, N-[(1S)-1-[[(1S)-1-cyano-2-[(3S)-2-oxopyrrolidin-3-yl]ethyl]carbamoyl]-3-methyl-butyl]-4-methoxy-1H-indole-2-carboxamide]	< 2	< 2	–	–
COc1cccc2[nH]c(C(=O)N3C[C@H]4C([C@H]3C(=O)N[C@H](C#N)C[C@@H]3CCNC3=O)C4(C)C)cc12 (stereo partly drawn) [Compound 197, (2S,5S)-N-[(1S)-1-cyano-2-[(3S)-2-oxopyrrolidin-3-yl]ethyl]-3-(4-methoxy-1H-indole-2-carbonyl)-6,6-dimethyl-3-azabicyclo[3.1.0]hexane-2-carboxamide]	< 2	< 2	–	–
COc1cccc2[nH]c(C(=O)N[C@@H](CC(C)C)C(=O)N[C@@H](C[C@@H]3CCNC3=O)C(N)C#N)cc12 (stereo partly drawn) [Compound 344C, N-[(1S)-1-[[(1S)-2-amino-2-cyano-1-[[(3S)-2-oxopyrrolidin-3-yl]methyl]ethyl]carbamoyl]-3-methyl-butyl]-4-methoxy-1H-indole-2-carboxamide]	< 2	< 2	–	–
CCCOc1cccc2[nH]c(C(=O)N[C@@H](CC3CC3)C(=O)N[C@H](C#N)C[C@@H]3CCNC3=O)cc12 [Compound 379, N-[(1S)-2-[[(1S)-1-cyano-2-[(3S)-2-oxopyrrolidin-3-yl]ethyl]amino]-1-(cyclopropylmethyl)-2-oxo-ethyl]-4-propoxy-1H-indole-2-carboxamide]	< 2	< 2	–	–
COc1cccc2[nH]c(C(=O)N[C@@H](CC3CC3)C(=O)N[C@H](C#N)Cc3ccccn3)cc12 [Compound 439, N-[(1S)-2-[[(1S)-1-cyano-2-(2-pyridyl)ethyl]amino]-1-(cyclopropylmethyl)-2-oxo-ethyl]-4-methoxy-1H-indole-2-carboxamide]	> 30	–	–	10 to 30
CC(C)C[C@H](NC(=O)c1cc2c(OC(F)F)cccc2[nH]1)C(=O)N[C@H](C#N)C[C@@H]1CCNC1=O [Compound 509, N-[(1S)-1-[[(1S)-1-cyano-2-[(3S)-2-oxopyrrolidin-3-yl]ethyl]carbamoyl]-3-methyl-butyl]-4-(difluoromethoxy)-1H-indole-2-carboxamide]	< 2	< 2	–	–
N#C[C@H](C[C@@H]1CCNC1=O)NC(=O)[C@H](CC1CC1)NC(=O)c1cc2cc(Cl)ccc2[nH]1 [Compound 519, 5-chloro-N-[(1S)-2-[[(1S)-1-cyano-2-[(3S)-2-oxopyrrolidin-3-yl]ethyl]amino]-1-(cyclopropylmethyl)-2-oxo-ethyl]-1H-indole-2-carboxamide]	< 2	< 2	–	–
N#C[C@H](C[C@@H]1CCNC1=O)NC(=O)[C@H](CC1CC1)NC(=O)c1cc2cccc(Cl)c2[nH]1 [Compound 531, 7-chloro-N-[(1S)-2-[[(1S)-1-cyano-2-[(3S)-2-oxopyrrolidin-3-yl]ethyl]amino]-1-(cyclopropylmethyl)-2-oxo-ethyl]-1H-indole-2-carboxamide]	< 2	< 2	–	–
COc1cccc2[nH]c(C(=O)N[C@@H](CC3CCC3)C(=O)N[C@H](C#N)C[C@@H]3CCNC3=O)cc12 [Compound 577, N-[(1S)-2-[[(1S)-1-cyano-2-[(3S)-2-oxopyrrolidin-3-yl]ethyl]amino]-1-(cyclobutylmethyl)-2-oxo-ethyl]-4-methoxy-1H-indole-2-carboxamide]	< 2	< 2	–	–
COc1cccc2[nH]c(C(=O)N[C@@H](CC(C)(C)C)C(=O)N[C@H](C#N)C[C@@H]3CCCNC3=O)cc12 [Compound 643, N-[(1S)-1-[[(1S)-1-cyano-2-[(3S)-2-oxo-3-piperidyl]ethyl]carbamoyl]-3,3-dimethyl-butyl]-4-methoxy-1H-indole-2-carboxamide]	< 2	< 2	–	–
COCCOCCOC(=O)N[C@@H](CC1CC1)C(=O)N[C@H](C#N)C[C@@H]1CCNC1=O [Compound 671, 2-(2-methoxyethoxy)ethyl N-[(1S)-2-[[(1S)-1-cyano-2-[(3S)-2-oxopyrrolidin-3-yl]ethyl]amino]-1-(cyclopropylmethyl)-2-oxo-ethyl]carbamate]	10 to 30	–	–	2 to 10
N#C[C@H](C[C@@H]1CCCNC1=O)NC(=O)[C@H](CC1CC1)NC(=O)c1ccn[nH]1 [Compound 872, N-((S)-1-(((S)-1-cyano-2-((S)-2-oxopiperidin-3-yl)ethyl)amino)-3-cyclopropyl-1-oxopropan-2-yl)-1H-pyrazole-5-carboxamide]	2 to 10	–	–	2 to 10
COC(=O)NS(=O)(=O)n1nccc1C(=O)N[C@@H](CC1CC1)C(=O)N[C@H](C#N)C[C@@H]1CCCNC1=O [Compound 1258]	2 to 10	–	–	2 to 10
(S)-N-((S)-1-cyano-2-((S)-2-oxopyrrolidin-3-yl)ethyl)-1-(4-methoxy-1H-indole-2-carbonyl)-4,4-dimethylpyrrolidine-2- carboxamide [Compound 395]	10 to 30	–	2 to 10	2 to 10
